# How the values were obtained:
# C. difficile spores = experiment: Spore viability testing; format: cell-based; details: for Viability of C. difficile spores: x2 MIC, 24 hours, CFU on taurocholate agar; for Inhibition of C. difficile spore germination: x5 MIC
# C. difficile ATCC43596 = experiment: Minimum inhibitory concentration assay; details: for C. difficile ATCC43596 MIC: 48 h, 37° C., anaerobic
# sheep blood = experiment: Hemolysis of sheep blood; format: cell-based; details: Ovis aries
# [1] = Cytotoxicity MTT assay, L12210; format: cell-based; details: mouse, L12210 cells
# Protocol: (§1) Selected molecules were tested for cytotoxicity (IC50) in cancer and healthy cells via a MTT colorimetric assay.
# (§2) Each cell was cultured in recommended medium by ATCC, and the IC50 data were obtained with each cell line.
# [2] = Cytotoxicity MTT assay, Panc-1; format: cell-based; details: human, Panc-1 cells
# Protocol: as §1, §2
# [3] = Cytotoxicity MTT assay, LoVo; format: cell-based; details: human, LoVo cells
# Protocol: as §1, §2
# [4] = test system: AsPc-1 (pancreatic cancer) cells; experiment: Synergistic assay (checkerboard) on AsPc-1 cells; format: cell-based
# Protocol: Synergistic Assay. The synergistic or antagonistic activities of 11 with other cancer drugs on AsPc-1 (pancreatic cancer) cells were assessed in vitro via micro dilution broth checkerboard technique previously reported. The FIC index was calculated according to the following equation. ΣFIC=FICA+FICB=CA/MICA+CB/MICB where MICA and MICB are MIC of drugs A and B, CA and CB are the concentrations of drugs A and B used in combination. In these interaction studies, ΣFIC of less than 0.5 represents synergistic activity.
# These experiments were performed in the same manner as those of Example 8.
# [5] = Cytotoxicity MTT assay, AsPc-1; format: cell-based; details: human, AsPc-1 cells
# Protocol: as §1, §2
# [6] = Cytotoxicity MTT assay, HPAF-II; format: cell-based; details: human, HPAF-II cells
# Protocol: as §1, §2
# Vero cells = experiment: Cytotoxicity MTT assay, Vero cells; format: cell-based, monkey
# [7] = Cytotoxicity MTT assay, MDA-MB-435S; format: cell-based; details: human, MDA-MB-435S cells
# Protocol: as §1, §2
# [8] = test system: patient-derived cell line (BCI-12); experiment: Animal model of Her2+ breast cancer (BCI-12 implanted); format: in vivo; details: mice
# Protocol: An animal model of Her2+ breast cancer was generated by implantation of cells of a patient-derived cell line (BCI-12) into mice. Said mice were treated with compound 11, with the therapeutic monoclonal antibody transtuzumab (TzMAb), or a combination of compound 11 and transtuzumab.
# MDA-MB-231 cells [9] = experiment: Animal model of triple negative breast cancer (MDA-MB-231 implanted); format: in vivo; details: mice, MDA-MB-231, 10 mg/kg/day, FIG. 10
# Protocol: An animal model of triple negative breast cancer was generated by implantation of MDA-MB-231 cells into mice. […] A second group of mice were treated with paclitaxel at 15 mg/kg.
# [10] = Cytotoxicity MTT assay, KB; format: cell-based; details: human, KB cells
# Protocol: as §1, §2
# WecA = WecA (Escherichia coli (strain K12), UniProt P0AC78); experiment: WecA assay (Table 1); details: relative to FR-900493 (1)
# Sequence of WecA (P0AC78 whole entry, looked up, species assumed): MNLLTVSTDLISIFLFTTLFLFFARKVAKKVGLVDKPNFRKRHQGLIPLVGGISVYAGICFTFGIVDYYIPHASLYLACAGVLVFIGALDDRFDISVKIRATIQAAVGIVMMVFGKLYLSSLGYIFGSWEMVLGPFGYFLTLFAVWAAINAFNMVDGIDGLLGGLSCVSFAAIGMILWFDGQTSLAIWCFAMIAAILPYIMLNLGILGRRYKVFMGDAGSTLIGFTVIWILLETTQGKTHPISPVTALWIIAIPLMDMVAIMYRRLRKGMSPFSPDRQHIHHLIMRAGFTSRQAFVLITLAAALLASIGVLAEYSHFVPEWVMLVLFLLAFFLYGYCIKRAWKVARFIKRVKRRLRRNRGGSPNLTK
# C. difficile = experiment: Antibacterial activity (FIG. 4), C. difficile; format: cell-based
# Water solubility = format: physicochemical; details: 11 relative to 10
# MDA-MB-231 cells [11] = experiment: Expression of tumor markers in MDA-MB-231 cells; format: cell-based; details: 48 hours of exposure, FIG. 12
# Text: It should be appreciated that MDA-MB-231 is a high DPAGT1 expressing, triple negative cell line. […] Erb2 (HER2), Erb3 (HER3), and Erb4 (HER4) are elevated.
# AsPc-1 cells = experiment: Scratch (wound healing) assay, AsPc-1; format: cell-based; details: FIG. 9
# [12] = Cytotoxicity MTT assay, SK-OV-3; format: cell-based; details: human, SK-OV-3 cells
# Protocol: as §1, §2
# MraY = MraY (Escherichia coli (strain K12), UniProt P0A6W3); experiment: MraY assay; format: biochemical; details: relative to FR-900493 (1)
# Sequence of MraY (P0A6W3 whole entry, looked up, species assumed): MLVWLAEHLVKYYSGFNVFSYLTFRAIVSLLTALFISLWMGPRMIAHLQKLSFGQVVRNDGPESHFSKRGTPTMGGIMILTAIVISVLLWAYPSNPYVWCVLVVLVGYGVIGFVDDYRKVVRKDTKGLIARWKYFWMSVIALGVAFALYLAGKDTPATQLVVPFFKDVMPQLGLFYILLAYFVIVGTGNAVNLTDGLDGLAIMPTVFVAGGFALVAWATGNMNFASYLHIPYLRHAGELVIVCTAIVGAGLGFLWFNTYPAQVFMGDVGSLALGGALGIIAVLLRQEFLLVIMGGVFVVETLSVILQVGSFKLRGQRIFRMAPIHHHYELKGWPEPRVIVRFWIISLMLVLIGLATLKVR
# [13] = Cytotoxicity MTT assay, HCT 116; format: cell-based; details: human, HCT 116 cells
# Protocol: as §1, §2
# Panc-1 cells = experiment: Boyden chamber migration assay, Panc-1; format: cell-based; details: FIG. 7
compound,measurement,setting,value
CCCCCCCc1ccc(NC(=O)CCCN(C)[C@H](C(N)=O)[C@H](OC2O[C@H](CN)[C@@H](O)[C@H]2O)[C@H]2O[C@@H](n3ccc(=O)[nH]c3=O)C(O)[C@H]2O)cc1 (stereo partly drawn) [Compound 9],Viability of C. difficile spores,C. difficile spores,caused loss of viability
same,anti-C. difficile growth inhibitory activity (in words),C. difficile ATCC43596,weak
CCCCCCCc1ccc(NC(=O)CCCN[C@H](C(N)=O)[C@H](OC2O[C@H](CN)[C@@H](O)[C@H]2O)[C@H]2O[C@@H](n3ccc(=O)[nH]c3=O)C(O)[C@H]2O)cc1 (stereo partly drawn) [Compound 10],Viability of C. difficile spores,C. difficile spores,caused loss of viability
same,IC50,sheep blood,70000 nM
NC[C@H]1O[C@@H](O[C@H]([C@H]2O[C@@H](n3ccc(=O)[nH]c3=O)[C@H](O)[C@@H]2O)[C@H](NCCCC(=O)NCc2ccc(N3CCC(Oc4ccc(C(F)(F)F)cc4)CC3)cc2)C(N)=O)[C@H](O)[C@@H]1O [Compound 11],IC50,[1],> 100000 nM
same,IC50,[2],< 98 nM
same,IC50,[3],220 nM
same,effect of combinations of 11 and Taxol,"[4]; AsPc-1, all five combinations, FIC < 0.5",synergistic effect
same,effect of combination of 11 and Gemcitabine,"[4]; AsPc-1, both combinations",synergistic effect
same,IC50 A / IC50 B (drug alone),"[4]; AsPc-1 cells, Table 5",982 nM
same,IC50 A / IC50 B (drug alone),"[4]; AsPc-1 cells, Table 6",980 nM
same,AsPc-1 cells dead/alive,[4]; Compound 11 0.0488281 μM + Gemcitabine 0.024414 μM,alive
same,AsPc-1 cells dead/alive,[4]; Compound 11 0.0488281 μM + Gemcitabine 0.048828 μM,alive
same,AsPc-1 cells dead/alive,[4]; Compound 11 0.0488281 μM + Gemcitabine 0.097656 μM,dead
same,AsPc-1 cells dead/alive,[4]; Compound 11 0.0488281 μM + Gemcitabine 0.195313 μM,dead
same,AsPc-1 cells dead/alive,[4]; Compound 11 0.0488281 μM + Gemcitabine 0.390625 μM,dead
same,AsPc-1 cells dead/alive,[4]; Compound 11 0.0976563 μM + Gemcitabine 0.024414 μM,alive
same,AsPc-1 cells dead/alive,[4]; Compound 11 0.0976563 μM + Gemcitabine 0.048828 μM,alive
same,AsPc-1 cells dead/alive,[4]; Compound 11 0.0976563 μM + Gemcitabine 0.097656 μM,dead
same,AsPc-1 cells dead/alive,[4]; Compound 11 0.0976563 μM + Gemcitabine 0.195313 μM,dead
same,AsPc-1 cells dead/alive,[4]; Compound 11 0.0976563 μM + Gemcitabine 0.390625 μM,dead
same,AsPc-1 cells dead/alive,[4]; Compound 11 0.1953125 μM + Gemcitabine 0.024414 μM,alive
same,AsPc-1 cells dead/alive,[4]; Compound 11 0.1953125 μM + Gemcitabine 0.048828 μM,alive
same,AsPc-1 cells dead/alive,[4]; Compound 11 0.1953125 μM + Gemcitabine 0.097656 μM,dead
same,AsPc-1 cells dead/alive,[4]; Compound 11 0.1953125 μM + Gemcitabine 0.195313 μM,dead
same,AsPc-1 cells dead/alive,[4]; Compound 11 0.1953125 μM + Gemcitabine 0.390625 μM,dead
same,AsPc-1 cells dead/alive,[4]; Compound 11 0.390625 μM + Gemcitabine 0.024414 μM,alive
same,AsPc-1 cells dead/alive,[4]; Compound 11 0.390625 μM + Gemcitabine 0.048828 μM,alive
same,AsPc-1 cells dead/alive,[4]; Compound 11 0.390625 μM + Gemcitabine 0.097656 μM,dead
same,AsPc-1 cells dead/alive,[4]; Compound 11 0.390625 μM + Gemcitabine 0.195313 μM,dead
same,AsPc-1 cells dead/alive,[4]; Compound 11 0.390625 μM + Gemcitabine 0.390625 μM,dead
same,AsPc-1 cells dead/alive,[4]; Compound 11 0.78125 μM + Gemcitabine 0.024414 μM,alive
same,AsPc-1 cells dead/alive,[4]; Compound 11 0.78125 μM + Gemcitabine 0.048828 μM,alive
same,AsPc-1 cells dead/alive,[4]; Compound 11 0.78125 μM + Gemcitabine 0.097656 μM,dead
same,AsPc-1 cells dead/alive,[4]; Compound 11 0.78125 μM + Gemcitabine 0.195313 μM,dead
same,AsPc-1 cells dead/alive,[4]; Compound 11 0.78125 μM + Gemcitabine 0.390625 μM,dead
same,IC50,[5],950 nM
same,IC50,[6],< 98 nM
same,"cytotoxic effects on healthy, non-cancerous Vero cells",Vero cells,little cytotoxic effects
same,IC50,[7],7090 nM
same,effect compared with transtuzumab,"[8]; BCI-12, FIG. 11",at least equivalent to transtuzumab
same,effect of combination of compound 11 and transtuzumab,"[8]; BCI-12, about days 20 to 30 of treatment",Improved effects
same,effect compared with paclitaxel (15 mg/kg),MDA-MB-231 cells [9],at least equivalent to palctitaxel
same,IC50,[10],7090 nM
same,"WecA inhibitory activity, more significant than 1",WecA,about 15 fold
same,antibacterial activity against C. difficile,C. difficile,displayed antibacterial activity
same,water solubility greater than 10,Water solubility,200 times
same,expression of DPAGT1 (RPKM Expression Value),MDA-MB-231 cells [11],sharply reduced
same,expression of EGFR (HER1),MDA-MB-231 cells [11],sharply reduced
same,expression of Erb2 (HER2),MDA-MB-231 cells [11],elevated
same,expression of Erb3 (HER3),MDA-MB-231 cells [11],elevated
same,expression of Erb4 (HER4),MDA-MB-231 cells [11],elevated
same,"AsPc-1 cell migration, scratch assay",AsPc-1 cells,less AsPc-1 cell migration than Gemcitabine
same,Viability of C. difficile spores,C. difficile spores,caused loss of viability
same,IC50,[12],2850 nM
same,IC50,sheep blood,206000 nM
same,"MraY inhibitory activity, more significant than 1",MraY,> 300 times
same,IC50,[13],3540 nM
same,Panc-1 migratory cells,Panc-1 cells,"fewer Panc-1 migratory cells than Gemcitabine, Taxol, and Tunicamycin"
CN(CCCC(=O)NCc1ccc(N2CCC(Oc3ccc(C(F)(F)F)cc3)CC2)cc1)[C@H](C(N)=O)[C@H](O[C@@H]1O[C@H](CN)[C@@H](O)[C@H]1O)[C@H]1O[C@@H](n2ccc(=O)[nH]c2=O)[C@H](O)C1O (stereo partly drawn) [Compound 12],anti-C. difficile growth inhibitory activity (in words),C. difficile ATCC43596,weak
"CN(CCCN)[C@H](C(=O)O)[C@H](O[C@@H]1O[C@H](CN)[C@@H](O)[C@H]1O)[C@H]1O[C@@H](n2ccc(=O)[nH]c2=O)[C@H](O)[C@@H]1O [FR-900493 (1), FR-900493]",C. difficile ATCC43596 MIC,C. difficile ATCC43596,>50 µg/mL
"Nc1ccn([C@@H]2O[C@H](CO)[C@@H](O)C2(F)F)c(=O)n1 [Gemcitabine, reference compound]",IC50 A / IC50 B (drug alone),"[4]; AsPc-1 cells, Table 6",390 nM
same,CA and CB (concentrations of drugs A and B used in combination),"[4]; AsPc-1 cells, combination of 11 (A) and Gemcitabine (B), per entry",0.37 µM
"CC(=O)O[C@H]1C(=O)[C@@]2(C)[C@H]([C@H](OC(=O)c3ccccc3)[C@]3(O)C[C@H](OC(=O)[C@H](O)[C@@H](NC(=O)c4ccccc4)c4ccccc4)C(C)=C1C3(C)C)[C@]1(OC(C)=O)CO[C@@H]1C[C@@H]2O [Taxol, Paclitaxel, reference compound]",IC50,[1],550 nM
same,IC50,[2],20 nM
same,IC50,[3],57 nM
same,IC50 A / IC50 B (drug alone),"[4]; AsPc-1 cells, Table 5",550 nM
same,lowest Taxol concentration to kill AsPc-1 cells when combined with 11,[4]; combined with 11,7 nM
same,IC50,[5],190 nM
same,IC50,[6],20 nM
same,IC50,[7],110 nM
same,IC50,[10],790 nM
same,IC50,[12],1080 nM
"CC(=O)NC[C@H]1CN(c2ccc(N3CCOCC3)c(F)c2)C(=O)O1 [linezolid, reference compound]",Inhibition of C. difficile spore germination,C. difficile spores,did not inhibit the spore germination
"Cc1ncc([N+](=O)[O-])n1CCO [metronidazole, reference compound]",Inhibition of C. difficile spore germination,C. difficile spores,did not inhibit the spore germination
"CN[C@H](CC(C)C)C(=O)N[C@H]1C(=O)N[C@@H](CC(N)=O)C(=O)N[C@H]2C(=O)N[C@H]3C(=O)N[C@H](C(=O)N[C@H](C(=O)O)c4cc(O)cc(O)c4-c4cc3ccc4O)[C@H](O)c3ccc(c(Cl)c3)Oc3cc2cc(c3O[C@@H]2O[C@H](CO)[C@@H](O)[C@H](O)[C@H]2O[C@H]2C[C@](C)(N)[C@H](O)[C@H](C)O2)Oc2ccc(cc2Cl)[C@H]1O [vancomycin, reference compound]",Inhibition of C. difficile spore germination,C. difficile spores,did not inhibit the spore germination
same,MIC against C. difficile (reference antibiotic),C. difficile ATCC43596,2.5 µg/mL
Tunicamycin,C. difficile ATCC43596 MIC,C. difficile ATCC43596,>50 µg/mL

# — patent US20250092081A1, “USE OF GLYCOSYLTRASNFERASE INHIBITORS FOR TREATING CANCER” (CALIFORNIA INSTITUTE OF TECHNOLOGY, priority 2020, published 2025)
